Like-named read-outs stand apart in the source and are kept apart here.
Key:
Format in all cases: physicochemical
[1] = Shelf life of substantially pure amorphized materials stored at 4° C. (x-ray diffraction)
Text: The inventors have discovered that acoustic levitation produces amorphous forms of a variety of organic compounds having different glass forming abilities. […] It is also noted that the term “vitreous”, “vitrify”, “vitrification”, “glass” and “glassy” are variations of amorphous for the purposes of this specification and may be used interchangeably. The x-ray diffraction patterns were obtained using very high flux, high energy x-rays that are capable of detecting even minute (<1%) traces of crystalline materials. A configuration to enable x-ray beam analysis is depicted in FIG. 8 and discussed infra.
Several amorphized samples were quenched by trapping them in a small volume of liquid quenchent (for example liquid nitrogen, which is maintained at about −196° C.). The quenched samples were stored at temperatures ranging from about −20° C. to 25° C.
Shelf life is therefore extended by cooling them. […] For bulk storage of amorphized materials, samples are stored at temperatures below freezing (0° C.) if the samples are to be kept more than 150 days. However, for short term storage (e.g., less than 150 days), stability is achieved at storage temperatures up to about 20° C.
Myriad types of materials are candidates for processing using the invented weightless process. Suitable genuses of material include, but are not limited to pharmaceuticals, antibiotics, cosmetics, foods such as dairy products, and combinations thereof. Table 1 below depicts the sample stability over time for various amorphous materials produced using the invented method.
The structure of the starting crystalline materials, the supersaturated samples processed in the levitator, and the in-situ progress of the evaporation experiments were measured using the 115 keV x-ray diffraction beam line 11-ID-C at the Advanced Photon Source, located at Argonne National Laboratory, Argonne, Ill. X-rays with an incident wavelength of 0.10798 Å were used and the scattered x-ray intensity was measured with a flat plate a-Si Perkin Elmer area detector (model XRD 1621). Generally, radiations greater than 40 keV are suitable to provide bulk structure detail of materials about a millimeter or two in size.

[2] = Glass transition temperature Tg
Method: The quenched samples were stored at temperatures ranging from about −20° C. to 25° C.

[3] = Retention of amorphous form on temperature exposure and room temperature storage (x-ray diffraction); conditions: for Amorphous state during temperature exposure: exposure to temperatures between about −200° C. and 25° C.; for Time amorphous form could be stored: room temperature, in glass or in contact with polyimide film
Text: (Suitable film is polyimide film, e.g., Kapton from Dupont.)
The structure and properties of stable or meta-stable amorphous gels are often quite different from their crystalline counterparts. Therefore at, or just prior to, tP the gels were quenched into a small dish of liquid nitrogen in an attempt to preserve the amorphous forms. The cold solid samples were quickly recovered and re-levitated. In-situ x-ray structure measurements were then made on the cold solids as they warmed back to room temperature.
Generally, radiations greater than 40 keV are suitable to provide bulk structure detail of materials about a millimeter or two in size.

[4] = In situ x-ray monitoring of levitated amorphous gel over time; conditions: after more than 14 hours of in situ measurements on the levitated drop, from ethanol solution
Text: By following the position of the principal peak in the x-ray diffraction patterns for all the supersaturated solutions, the amorphization process was investigated as a function of time. […] The fact there are no sharp (needle like) peaks in the measured spectra indicates the materials are completely amorphous. […] Some of the samples prepared using the invented process maintained their amorphous form for at least three weeks. This imaging method enabled the structural evolution of the material to be monitored in real time. The data were acquired from levitated samples in two minute duration sets.

[5] = quenched samples stored at about −20° C. to 25° C., as noted in Table 1

Compound	Tg [2] [°C]	Stability of amorphized drug over a period of months [1, 5]	Amorphous state during temperature exposure [3]	Time amorphous form could be stored [3]	other results
CC(C)(C)CC(C)(C)c1ccc(O)c(Cc2ccc(Cl)cc2Cl)c1 [Clofoctol]			remain amorphous	at least three	
Clc1ccccc1C(c1ccccc1)(c1ccccc1)n1ccnc1 [Clotrimazole]	30	remained substantially stable	remain amorphous	at least three	
Clc1ccc(COC(Cn2ccnc2)c2ccc(Cl)cc2Cl)c(Cl)c1 (stereo not shown) [Miconazole Nitrate]	1	remained substantially stable			
CC(C)(Sc1cc(C(C)(C)C)c(O)c(C(C)(C)C)c1)Sc1cc(C(C)(C)C)c(O)c(C(C)(C)C)c1 [Probucol]	27				Stability of amorphized drug over a period of months [1]: remained substantially stable

More lines, main results first:

Tg [2] [°C]	Stability of amorphized drug over a period of months [1, 5]	Amorphous state during temperature exposure [3]	Time amorphous form could be stored [3]	Compound	other results
61				NC(=O)N1c2ccccc2C=Cc2ccccc21 [Carbamazepine]	Shelf life: amorphous state at time 1 month ([1]; stored at 4° C., 1 month): A/P; Shelf life: amorphous state at time 2 months ([1]; stored at 4° C., 2 months): A/P; Shelf life: amorphous state at time 3 months ([1]; stored at 4° C., 3 months): A/P; Shelf life: amorphous state at time 4 months ([1]; stored at 4° C., 4 months): A/P
7	remained substantially stable			C(=C\c1ccccc1)/CN1CCN(C(c2ccccc2)c2ccccc2)CC1 [Cinnazirine, Cinnarizine]	
			at least three	CC(C)Cc1ccc(C(C)C(=O)O)cc1 (stereo not shown) [Ibuprofen]	Changes in structure of levitated amorphous gel after plateau [4]: only minimal changes in structure
−3		remain amorphous	at least three	CC(C(=O)O)c1cccc(C(=O)c2ccccc2)c1 (stereo not shown) [Ketoprofen]	
